Assay results reported in EPA's ToxRefDB 2.

How the values were obtained:
[1] = system: dog; settings: Chronic toxicity, beagle, Oral, Feed, dose end: 12 month
[2] = system: rat; settings: Multigenerational reproductive toxicity study, sprague dawley, Oral, Feed, dose end: 3 generation
[3] = system: rat; settings: Subchronic oral toxicity in rodents, fischer, Feed, dose end: 13 week
[4] = system: dog; settings: Subchronic oral toxicity in nonrodent, beagle, Feed, dose end: 13 week
[5] = system: rat; settings: Multigenerational reproductive toxicity study, sprague dawley, Oral, Feed, dose end: 2 generation
[6] = system: mouse; settings: Carcinogenicity, cd1, Oral, Feed, dose end: 78 week
[7] = system: rat; settings: Combined chronic toxicity/carcinogenicity, fischer, Oral, Feed, dose end: 24 month
[8] = system: rat; settings: Multigenerational reproductive toxicity study, sprague dawley, Oral, Feed, dose end: 2 generation; remark: listed apart in the source
[9] = group: cholinesterase, cholinesterase / cholinesterase / cholinesterase / plasma cholinesterase (che)
[10] = group: systemic, systemic / clinical chemistry / calcium / calcium + systemic / clinical chemistry / potassium / potassium + systemic / clinical chemistry / …
[11] = group: offspring, systemic / in life observation / body weight / offspring (pup) weight
[12] = group: offspring, systemic / in life observation / body weight / offspring (pup) weight + developmental / offspring survival late / viability index / …
[13] = group: parental, systemic / in life observation / body weight / body weight
[14] = group: parental, systemic / in life observation / body weight / body weight + systemic / in life observation / food consumption / food consumption
[15] = group: systemic, systemic / hematology / platelet / platelet + systemic / organ weight / adrenal gland / absolute + systemic / organ weight / testes / …
[16] = group: systemic, systemic / pathology microscopic / adrenal gland / hypertrophy + systemic / pathology microscopic / adrenal gland / necrosis + systemic / …
[17] = group: cholinesterase, cholinesterase / cholinesterase / cholinesterase / plasma cholinesterase (che) + cholinesterase / cholinesterase / cholinesterase / …
[18] = group: systemic, systemic / clinical chemistry / albumin / albumin + systemic / clinical chemistry / alkaline phosphatase (alp/alk) / alkaline phosphatase (…
[19] = group: cholinesterase, cholinesterase / cholinesterase / cholinesterase / erythrocyte cholinesterase (che)
[20] = group: offspring, systemic / organ weight / spleen / absolute + systemic / organ weight / spleen / relative to body weight
[21] = group: parental, systemic / pathology microscopic / adrenal gland / vacuolization cytoplasmic + systemic / organ weight / adrenal gland / absolute + systemic…
[22] = group: cholinesterase, cholinesterase / cholinesterase / cholinesterase / brain cholinesterase (che) + cholinesterase / cholinesterase / cholinesterase / …
[23] = group: systemic, systemic / urinalysis / protein / protein
[24] = group: cholinesterase, cholinesterase / cholinesterase / cholinesterase / erythrocyte cholinesterase (che) + cholinesterase / cholinesterase / cholinesterase / …
[25] = group: systemic, systemic / pathology microscopic / pituitary gland / adenoma + systemic / pathology microscopic / uterus / polyp stromal + systemic / …
[26] = group: offspring, developmental / offspring survival late / lactation index / lactation index + systemic / in life observation / body weight / offspring (pup…
[27] = group: parental, systemic / pathology microscopic / adrenal gland / [other] + systemic / pathology microscopic / adrenal gland / vacuolization + systemic / …

CNC(=O)Oc1cccc2c1OC(C)(C)C2 [Carbofuran]
LEL [1, 9]: 0.5 mg/kg/day | LOAEL [1, 9]: 0.5 mg/kg/day | NEL [1, 9]: 0.25 mg/kg/day | NOAEL [1, 9]: 0.25 mg/kg/day | LEL [1, 10]: 12.5 mg/kg/day | LOAEL [1, 10]: > 12.5 mg/kg/day | NEL [1, 10]: 0.5 mg/kg/day | NOAEL [1, 10]: ≥ 12.5 mg/kg/day | NEL [2, 11]: 1 mg/kg/day | NOAEL [2, 11]: 1 mg/kg/day | LEL [2, 12]: 5 mg/kg/day | LOAEL [2, 12]: 5 mg/kg/day | LEL [2, 13]: 1 mg/kg/day | NEL [2, 13]: < 1 mg/kg/day | LOAEL [2, 14]: 5 mg/kg/day | NOAEL [2, 14]: 1 mg/kg/day

COP(=S)(OC)Oc1nc(Cl)c(Cl)cc1Cl [Chlorpyrifos-methyl]
LEL [3, 9]: 0.1 mg/kg/day | LOAEL [3, 9]: 0.1 mg/kg/day | NEL [3, 9]: < 0.1 mg/kg/day | NOAEL [3, 9]: < 0.1 mg/kg/day | LEL [3, 15]: 0.1 mg/kg/day | NEL [3, 15]: < 0.1 mg/kg/day | LOAEL [3, 16]: 10 mg/kg/day | NOAEL [3, 16]: 1 mg/kg/day | LEL [4, 9]: 0.1 mg/kg/day | NEL [4, 9]: < 0.1 mg/kg/day | LOAEL [4, 17]: 10 mg/kg/day | NOAEL [4, 17]: 0.1 mg/kg/day | LEL [4, 18]: 50 mg/kg/day | LOAEL [4, 18]: 50 mg/kg/day | NEL [4, 18]: 10 mg/kg/day | NOAEL [4, 18]: 10 mg/kg/day | LEL [5, 19]: 1 mg/kg/day | LOAEL [5, 19]: 1 mg/kg/day | NEL [5, 19]: < 1 mg/kg/day | NOAEL [5, 19]: < 1 mg/kg/day | LEL [5, 20]: 10 mg/kg/day | LOAEL [5, 20]: > 10 mg/kg/day | NEL [5, 20]: 3 mg/kg/day | NOAEL [5, 20]: ≥ 10 mg/kg/day | LOAEL ([5]; group: parental, systemic / pathology microscopic / adrenal gland / vacuolization cytoplasmic): 3 mg/kg/day | LEL [5, 21]: 3 mg/kg/day | NEL [5, 21]: 1 mg/kg/day | NOAEL [5, 21]: 1 mg/kg/day | LEL [6, 22]: 3.94 mg/kg/day | LOAEL [6, 22]: 3.94 mg/kg/day | NEL [6, 22]: 0.403 mg/kg/day | NOAEL [6, 22]: 0.403 mg/kg/day | LOAEL ([6]; group: systemic, systemic / pathology microscopic / liver / fatty change): 41.5 mg/kg/day | NOAEL ([6]; group: systemic, systemic / pathology microscopic / liver / fatty change + systemic / clinical chemistry / alkaline phosphatase (alp/alk) / alkaline …): 3.94 mg/kg/day | LEL [6, 23]: 0.0816 mg/kg/day | NEL [6, 23]: < 0.0816 mg/kg/day | LEL [7, 19]: 0.1 mg/kg/day | LOAEL [7, 24]: 1 mg/kg/day | NEL [7, 24]: 0.05 mg/kg/day | NOAEL [7, 24]: 0.1 mg/kg/day | LEL ([7]; group: systemic, systemic / pathology microscopic / pituitary gland / adenoma): 0.1 mg/kg/day | LOAEL ([7]; group: systemic, systemic / pathology microscopic / pituitary gland / adenoma + systemic / pathology microscopic / adrenal gland / vacuolization): 1 mg/kg/day | NEL [7, 25]: 0.05 mg/kg/day | NOAEL [7, 25]: 0.1 mg/kg/day | LEL [8, 24]: 1 mg/kg/day | LOAEL [8, 24]: 1 mg/kg/day | NEL [8, 24]: 0.1 mg/kg/day | NOAEL [8, 24]: 0.1 mg/kg/day | LEL [8, 26]: 5 mg/kg/day | LOAEL [8, 26]: 5 mg/kg/day | NEL [8, 26]: 1 mg/kg/day | NOAEL [8, 26]: 1 mg/kg/day | NEL ([8]; group: parental, systemic / pathology microscopic / adrenal gland / [other] + systemic / pathology microscopic / adrenal gland / vacuolization): 1 mg/kg/day | LEL [8, 27]: 5 mg/kg/day | LOAEL [8, 27]: > 5 mg/kg/day | NOAEL [8, 27]: ≥ 5 mg/kg/day
